Data taken from BindingDB's records for doi:10.1016/j.bmcl.2020.127669 (Janssen Research & Development, 2021).

Target: 5-hydroxytryptamine receptor 2B (Homo sapiens, UniProt P41595)
Assay: Displacement of […] from human 5-HT2B receptor by competitive radioligand binding assay

Chain of 5-hydroxytryptamine receptor 2B (P41595 whole entry): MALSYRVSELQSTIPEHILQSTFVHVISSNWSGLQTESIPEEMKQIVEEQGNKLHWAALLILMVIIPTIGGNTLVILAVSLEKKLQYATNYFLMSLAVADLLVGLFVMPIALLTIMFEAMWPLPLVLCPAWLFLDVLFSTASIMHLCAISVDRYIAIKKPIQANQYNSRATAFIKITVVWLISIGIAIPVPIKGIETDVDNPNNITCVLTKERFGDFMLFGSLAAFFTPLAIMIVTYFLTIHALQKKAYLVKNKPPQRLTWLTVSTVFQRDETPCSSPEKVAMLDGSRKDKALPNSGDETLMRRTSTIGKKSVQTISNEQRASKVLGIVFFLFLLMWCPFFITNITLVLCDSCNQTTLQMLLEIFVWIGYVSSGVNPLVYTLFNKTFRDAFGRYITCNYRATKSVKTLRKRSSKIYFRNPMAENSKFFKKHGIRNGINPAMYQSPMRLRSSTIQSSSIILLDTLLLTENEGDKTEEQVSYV

Question: For `CC(C)n1nc2c(c1-c1ccc(F)cc1)CCNCC2`, which Ki is on record?
Answer: 25 nM
